Measured values published in patent USRE50082E1, “(5,6-dihydro)pyrimido[4,5-e]indolizines” (NETHERLANDS TRANSLATIONAL RESEARCH CENTER B.V., priority 2014, dated 2024).
pIC50: −log10 of the molar value. Like-named read-outs stand apart in the source and are kept apart here.

Legend:
[1] = target: Polo-like kinase 1 (PLK1) (Homo sapiens, UniProt P53350); experiment: Biochemical Polo-like kinase 1 kinase assay (LANCE Ultra TR-FRET); conditions: for PLK1 Selectivity: IC50 PLK1/IC50 TTK (biochemical assays)
Polo-like kinase 1 (PLK1), sequence (P53350 whole entry): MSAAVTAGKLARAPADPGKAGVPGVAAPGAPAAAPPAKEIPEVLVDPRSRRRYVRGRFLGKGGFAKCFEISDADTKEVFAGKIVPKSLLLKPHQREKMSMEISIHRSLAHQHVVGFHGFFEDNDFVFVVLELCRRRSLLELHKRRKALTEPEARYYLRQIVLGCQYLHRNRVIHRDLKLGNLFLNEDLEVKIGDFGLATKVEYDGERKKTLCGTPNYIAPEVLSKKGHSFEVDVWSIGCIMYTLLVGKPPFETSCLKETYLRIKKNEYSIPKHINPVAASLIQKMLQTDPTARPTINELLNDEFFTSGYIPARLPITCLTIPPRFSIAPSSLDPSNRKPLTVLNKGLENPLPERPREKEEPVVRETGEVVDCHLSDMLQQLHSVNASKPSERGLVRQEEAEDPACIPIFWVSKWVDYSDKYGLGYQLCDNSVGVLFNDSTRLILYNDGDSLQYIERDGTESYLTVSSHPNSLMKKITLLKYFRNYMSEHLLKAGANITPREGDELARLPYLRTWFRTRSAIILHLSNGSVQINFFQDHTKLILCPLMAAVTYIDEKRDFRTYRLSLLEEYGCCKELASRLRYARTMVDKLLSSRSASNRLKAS
Procedure: To determine the inhibitory activity of the compounds on Polo-like kinase 1 (PLK1), the LANCE® Ultra TR-FRET assay (Perkin Elmer) was used. […] After 4 hours, the reaction was stopped by the addition of 5 μl 100 mM EDTA. […] Time-resolved fluorescence was measured on an Envision multilabel reader (Perkin Elmer, Waltham, Mass. USA). IC50 were calculated using XLfit™5 software (ID Business Solutions, Ltd., Surrey, U.K.).

Aurora A = target: T1, Aurora A (Homo sapiens, UniProt O14965); experiment: Biochemical Aurora A kinase assay (LANCE Ultra TR-FRET); conditions: for AurA Selectivity: IC50 AurA/IC50 TTK (biochemical assays); for pIC50: full-length Aurora A, 2 μM ATP
T1 construct: full-length Aurora A enzyme (Carna Biosciences, cat. no. 05-101); purchased Carna Biosciences 05-101
T1 sequence (O14965 1-403): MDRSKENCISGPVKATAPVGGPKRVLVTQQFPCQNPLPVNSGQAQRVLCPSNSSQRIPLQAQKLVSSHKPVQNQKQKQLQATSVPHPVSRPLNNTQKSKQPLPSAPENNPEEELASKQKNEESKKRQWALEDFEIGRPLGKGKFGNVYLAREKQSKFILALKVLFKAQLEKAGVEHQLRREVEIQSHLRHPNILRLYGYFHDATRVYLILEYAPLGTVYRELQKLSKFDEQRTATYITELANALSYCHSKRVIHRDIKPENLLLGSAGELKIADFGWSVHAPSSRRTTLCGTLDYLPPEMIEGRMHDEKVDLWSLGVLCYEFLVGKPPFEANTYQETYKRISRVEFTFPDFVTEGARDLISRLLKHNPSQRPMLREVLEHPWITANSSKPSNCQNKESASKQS
Procedure: To determine the inhibitory activity of the compounds on Aurora A, the LANCE® Ultra TR-FRET assay (Perkin Elmer) was used. […] After 2 hours, the reaction was stopped by the addition of 5 μl 100 mM EDTA. […] Time-resolved fluorescence was measured on an Envision multilabel reader (Perkin Elmer, Waltham, Mass., USA). IC50 were calculated using XLfit™5 software (ID Business Solutions, Ltd., Surrey, U.K.).

MOLT-4 cancer cell line = experiment: Cell proliferation assay, MOLT-4 cancer cell line (ATPlite); type: cell-based; conditions: Homo sapiens;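 further: luminescence read-out, percent growth versus compound-free DMSO wells as maximum growth, start-of-incubation signal separating growth from cell death, IC50 from logistic curve fit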
Procedure: 5 μL of compound solution was added and the plates were incubated for an additional 72 hours after which 25 μL of ATPlite 1Step™ (PerkinElmer, Groningen, The Netherlands) solution was added to each well. Luminescence was recorded on an Envision multimode reader. The cell signal at the start of incubation was recorded separately in order to distinguish between cell population growth and cell death. In addition, maximum growth was determined by incubation of a duplicate without compound in the presence of 0.4% DMSO. Percentage growth was used as the main y-axis signal. IC50s were fitted by non-linear regression using IDBS XLfit™5 using a 4-parameter logistic curve, yielding a maximum signal, minimum signal, hill-parameter and IC50.

Aurora C = target: T2, Aurora C (Homo sapiens, UniProt Q9UQB9); experiment: Biochemical Aurora C kinase assay (LANCE Ultra TR-FRET); conditions: for AurC Selectivity: IC50 AurC/IC50 TTK (biochemical assays); for pIC50: full-length Aurora C, 5 μM ATP
T2 construct: full-length Aurora C enzyme (Carna Biosciences, cat. no. 05-103); purchased Carna Biosciences 05-103
T2 sequence (Q9UQB9 1-309): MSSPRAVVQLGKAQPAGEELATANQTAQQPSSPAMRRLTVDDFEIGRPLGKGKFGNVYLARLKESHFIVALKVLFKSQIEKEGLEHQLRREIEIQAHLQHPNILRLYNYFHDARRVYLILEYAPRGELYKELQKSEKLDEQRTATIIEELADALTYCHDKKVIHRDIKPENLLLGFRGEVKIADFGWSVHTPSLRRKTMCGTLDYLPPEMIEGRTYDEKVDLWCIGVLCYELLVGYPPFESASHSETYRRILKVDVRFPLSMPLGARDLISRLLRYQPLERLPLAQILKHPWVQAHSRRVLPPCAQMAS
Procedure: To determine the inhibitory activity of the compounds on Aurora C, the LANCE® Ultra TR-FRET assay (Perkin Elmer) was used. […] After pre-incubation of 1 hour in the dark at room temperature, ULightTM-labeled PLK([MUT]) substrate peptide (Perkin Elmer, cat. no. TRF-0110) and ATP were added, to start the reaction. […] After 3 hours, the reaction was stopped by the addition of 5 μl 100 mM EDTA. […] Time-resolved fluorescence was measured on an Envision multilabel reader (Perkin Elmer, Waltham, Mass., USA). IC50 were calculated using XLfitTM5 software (ID Business Solutions, Ltd., Surrey, U.K.).

[2] = MOLT-4, 72 hours incubation, ATPlite 1Step, read-out: IC50 MOLT-4 cell proliferation
[3] = MOLT-4, read-out: IC50 in the TTK cellular assay
[4] = MOLT-4, worded 'TTK cellular assay', read-out: IC50 in the TTK cellular assay

Compound | pIC50 [1] | PLK1 Selectivity [1] | AurA Selectivity (Aurora A) | pIC50 (Aurora A) | pIC50 (MOLT-4 cancer cell line; [2]) | AurC Selectivity (Aurora C) | pIC50 (Aurora C) | pIC50 (MOLT-4 cancer cell line; [3]) | pIC50 (MOLT-4 cancer cell line; [4])
CCc1n[nH]c(CC)c1NC(=O)c1ccn2c1CCc1cnc(Nc3ccc(N4CCN(C)CC4)cc3OC(F)F)nc1-2 [Example 33, N-(3,5-diethyl-1H-pyrazol-4-yl)-2-[2-(difluoromethoxy)-4-(4-methylpiperazin-1-yl)anilino]-5,6-dihydropyrimido[4,5-e]indolizine-7-carboxamide] | ≤ 6.60 | >500 | >500 | ≤ 7.00 | > 7.30 | >500 | ≤ 7.00 |  | 
CCOCCOCCn1nc(C)c(NC(=O)c2ccn3c2CCc2cnc(Nc4ccc(N5CCN(C)CC5)cc4OC)nc2-3)c1C [Example 148, N-[1-[2-(2-ethoxyethoxy)ethyl]-3,5-dimethyl-pyrazol-4-yl]-2-[2-methoxy-4-(4-methylpiperazin-1-yl)anilino]-5,6-dihydropyrimido[4,5-e]indolizine-7-carboxamide] | ≤ 6.60 |  |  | ≤ 7.00 |  |  | ≤ 7.00 | > 7.30 | 
COCCOCCn1nc(C)c(NC(=O)c2ccn3c2CCc2cnc(Nc4ccc(N5CCN(C)CC5)cc4OC)nc2-3)c1C [Example 149, N-[1-[2-(2-methoxyethoxy)ethyl]-3,5-dimethyl-pyrazol-4-yl]-2-[2-methoxy-4-(4-methylpiperazin-1-yl)anilino]-b,6-dihydropyrimido[4,5-e]indolizine-7-carboxamide] | ≤ 6.60 | >500 | >200 | ≤ 7.00 |  | >500 | ≤ 7.00 |  | > 7.30
CCOCCOCCn1nc(CC)c(NC(=O)c2ccn3c2CCc2cnc(Nc4ccc(N5CCNCC5)cc4OC)nc2-3)c1CC [Example 151, N-[1-[2-(2-ethoxyethoxy)ethyl]-3,5-diethyl-pyrazol-4-yl]-2-(2-methoxy-4-piperazin-1-yl-anilino)-5,6-dihydropyrimido[4,5-e]indolizine-7-carboxamide] | ≤ 6.60 | >500 | >100 | ≤ 7.00 |  | >500 | ≤ 7.00 |  | > 7.30
COCCOCCOCCn1nc(C)c(NC(=O)c2ccn3c2CCc2cnc(Nc4ccc(N5CCNCC5)cc4OC)nc2-3)c1C [Example 156, N-[1-[2-[2-(2-methoxyethoxy)ethoxy]ethyl]-3,5-dimethyl-pyrazol-4-yl]-2-(2-methoxy-4-piperazin-1-yl-anilino)-5,6-dihydropyrimido[4,5-e]indolizine-7-carboxamide] | ≤ 6.60 | >500 | >200 | ≤ 7.00 |  | >500 | ≤ 7.00 |  | > 7.30
CCc1nn(CCOCCOC)c(CC)c1NC(=O)c1ccn2c1CCc1cnc(Nc3ccc(N4CCN(C(=O)COC)CC4)cc3OC)nc1-2 [Example 159, N-[3,5-diethyl-1-[2-(2-methoxyethoxy)ethyl]pyrazol-4-yl]-2-[2-methoxy-4-[4-(2-methoxyacetyl)piperazin-1-yl]anilino]-5,6-dihydropyrimido[4,5-e]indolizine-7-carboxamide] | ≤ 6.60 | >500 | >200 | ≤ 7.00 |  | >200 | ≤ 7.00 |  | > 7.30
COCCn1nc(C)c(NC(=O)c2ccn3c2CCc2cnc(Nc4ccc(N5CCN(C(=O)C6CN(C)C6)CC5)cc4OC)nc2-3)c1C [Example 155, N-[1-(2-methoxyethyl)-3,5-dimethyl-pyrazol-4-yl]-2-[2-methoxy-4-[4-(1-methylazetidine-3-carbonyl)piperazin-1-yl]anilino]-5,6-dihydropyrimido[4,5-e]indolizine-7-carboxamide] | ≤ 6.60 | >500 | >200 | ≤ 7.00 |  | >500 | ≤ 7.00 |  | > 7.30
CCNCC(=O)N1CCN(c2ccc(Nc3ncc4c(n3)-n3ccc(C(=O)Nc5c(CC)nn(CCOCCOC)c5CC)c3CC4)c(OC)c2)CC1 [Example 158, N-[3,5-diethyl-1-[2-(2-methoxyethoxy)ethyl]pyrazol-4-yl]-2-[4-[4-[2-(ethylamino)acetyl]piperazin-1-yl]-2-methoxy-anilino]-5,6-dihydropyrimido[4,5-e]indolizine-7-carboxamide] | ≤ 6.60 | >500 | >200 | ≤ 7.00 |  | >500 | ≤ 7.00 |  | > 7.30
CCc1nn(CCOCCOC)c(CC)c1NC(=O)c1ccn2c1CCc1cnc(Nc3ccc(N4CCN(C)CC4)cc3OC)nc1-2 [Example 141, N-[3,5-diethyl-1-[2-(2-methoxyethoxy)ethyl]pyrazol-4-yl]-2-[2-methoxy-4-(4-methylpiperazin-1-yl)anilino]-5,6-dihydropyrimido[4,5-e]indolizine-7-carboxamide] | ≤ 6.60 | >500 | >200 | ≤ 7.00 | > 7.30 | >500 | ≤ 7.00 |  | 
CCNCC(=O)N1CCN(c2ccc(Nc3ncc4c(n3)-n3ccc(C(=O)Nc5c(C)nn(CCOCCOCCOC)c5C)c3CC4)c(OC)c2)CC1 [Example 157, 2-[4-[4-[2-(Ethylamino)acetyl]piperazin-1-yl]-2-methoxy-anilino]-N-[1-[2-[2-(2-methoxyethoxy)ethoxy]ethyl]-3,5-dimethyl-pyrazol-4-yl]-5,6-dihydropyrimido[4,5-e]indolizine-7-carboxamide] | ≤ 6.60 | >500 | >200 | ≤ 7.00 |  | >500 | ≤ 7.00 |  | > 7.30
COCCOCCOCCn1nc(C)c(NC(=O)c2ccn3c2CCc2cnc(Nc4ccc(-c5c(C)nn(C)c5C)cc4OC)nc2-3)c1C [Example 160, N-[1-[2-[2-(2-methoxyethoxy)ethoxy]ethyl]-3,5-dimethyl-pyrazol-4-yl]-2-[2-methoxy-4-(1,3,5-trimethylpyrazol-4-yl)anilino]-5,6-dihydropyrimido[4,5-e]indolizine-7-carboxamide] | ≤ 6.60 |  |  | ≤ 7.00 |  |  | ≤ 7.00 | > 7.30 | 
COCCOCCOCCn1nc(C)c(NC(=O)c2ccn3c2CCc2cnc(Nc4ccc(N5CCN(C)CC5)cc4OC)nc2-3)c1C [Example 138, N-[1-[2-[2-(2-methoxyethoxy)ethoxy]ethyl]-3,5-dimethyl-pyrrazol-4-yl]-2-[2-methoxy-4-(4-methylpiperazin-1-yl)anilino]-5,6-dihydropyrimido[4,5-e]indolizine-7-carboxamide] | ≤ 6.60 | >500 | >500 | ≤ 7.00 | > 7.30 | >500 | ≤ 7.00 |  | 
CCc1cccc(CC)c1NC(=O)c1ccn2c1ccc1cnc(Nc3ccc(N4CCN(C)CC4)cc3OC)nc12 [Example 71, N-(2,6-diethylphenyl)-2-[2-methoxy-4-(4-methylpiperazin-1-yl)anilino]pyrimido[4,5-e]indolizine-7-carboxamide] |  |  |  |  | > 7.30 |  |  |  | 
